Several values for one entry are separate records, joined by “and”; a condition that tells them apart may be missing. Equal values may be shown once.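 Values below derive from 48-hour exposures of cells grown in 96-well plates, with endpoints linearly interpolated between the two concentrations bracketing the appropriate inhibition level. At the GI50, growth is halved. TGI: concentration producing complete growth inhibition.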
Assays:
Test in all cases: inhibition of tumour cell growth, NCI panel, 48 h
[1] = test system: A498 renal
[2] = test system: COLO 205 colon
[3] = test system: T-47D breast
[4] = test system: RXF 393 renal
[5] = test system: NCI-H460 lung
[6] = test system: LOX IMVI melanoma
[7] = test system: DU-145 prostate
[8] = test system: SR leukemia
[9] = test system: HT29 colon
[10] = test system: SK-MEL-2 melanoma

Row | Structure (SMILES) | TGI [1] | TGI [2] | TGI [3] | TGI [4] | TGI [5] | TGI [6] | TGI [7] | TGI [8] | TGI [9] | TGI [10] | GI50 [1] | GI50 [2] | GI50 [3] | GI50 [4] | GI50 [5] | GI50 [6] | GI50 [7] | GI50 [8] | GI50 [9] | GI50 [10]
1 | Oc1oc(-c2ccccc2)nc1/C=C1/C=NN=N1 | > 100 µM | > 100 µM | > 100 µM | > 100 µM | > 100 µM | > 100 µM | > 100 µM | > 100 µM | > 100 µM | > 100 µM |  |  |  |  |  |  |  |  |  | 
2 | CCC(C)c1cnc(CC(C)C)c(=O)[nH]1 (centres undefined) | > 100 µM | > 100 µM | > 100 µM | > 100 µM | > 100 µM | > 100 µM | > 100 µM | > 100 µM | > 100 µM | > 100 µM |  |  |  |  |  |  |  |  |  | 
3 | c1cc(C2N3CCCN2CC3)ccn1 (centres undefined) | > 100 µM | > 100 µM | > 100 µM | > 100 µM | > 100 µM | > 100 µM | > 100 µM | > 100 µM | > 100 µM | > 100 µM |  |  |  |  |  |  |  |  |  | 
4 | CN(C)CCC(=O)NCc1c2nc3ccccc3nc2n2ccccc12 | 88.1 µM | > 100 µM | > 100 µM | > 100 µM | > 100 µM | 40.4 µM | > 100 µM | 41.8 µM | > 100 µM | > 100 µM | 22 µM | 73.3 µM | > 100 µM | 54.8 µM | 42.5 µM | 21 µM | 12.3 µM | 16.9 µM | 35.9 µM | 48.1 µM
5 | Cc1cccc2cc3ccc4ccccc4c3cc12 | > 100 µM | 39 µM | > 100 µM | > 100 µM | 83.2 µM | > 100 µM | > 100 µM | 47.4 µM | 97.8 µM | 66.5 µM |  |  |  |  |  |  |  |  |  | 
6 | Cc1sc2c(c1C)C(c1ccc(Cl)cc1)=N[C@@H](CC(=O)Nc1ccc(O)cc1)c1nnc(C)n1-2 | 2.48 µM | 14.3 µM | 28.2 µM | 15.5 µM | 27.4 µM | 6.29 µM | 42.8 µM | 28.6 µM | 18.9 µM | 22 µM | 0.204 µM | 0.146 µM | 0.245 µM | 1.79 µM | 2.95 µM | 0.109 µM | 14.7 µM | 0.344 µM | 0.197 µM | 3.31 µM
7 | COc1ccc(NCc2c(O)ccc3ccccc23)cc1 | > 100 µM | 94.3 µM | 55.1 µM | 35 µM | > 100 µM | 29.4 µM | > 100 µM | 39.5 µM | > 100 µM | > 100 µM |  |  |  |  |  |  |  |  |  | 
8 | C=C(C)C1CCC2(CO)C(O)CC3(C)C(CCC4C5(C)CCC(O)C(C)(C)C5CCC43C)C12 (centres undefined) | 31.9 µM |  | 11.3 µM | 9.65 µM | 64.3 µM | 24.2 µM | > 100 µM | > 100 µM | 54.7 µM | 32 µM |  |  |  |  |  |  |  |  |  | 
9 | CCCCc1oc2ccccc2c1C(=O)c1cc(I)c(OCCN(CC)CC)c(I)c1 | 14.3 µM | 3.4 µM and 7.84 µM | 12.2 µM | 2.97 µM and 8.79 µM | 3.87 µM | 2.82 µM and 7.86 µM | 17.8 µM | 4.24 µM | 5.01 µM and 8.27 µM |  |  | 1.89 µM | 3.16 µM | 1.26 µM |  | 1.49 µM | 5.28 µM | 1.68 µM | 1.97 µM | 
10 | NC(N)=N/N=C(/c1ccccc1)c1ccc(O)cc1O | 61.7 µM | 33.2 µM | > 100 µM | > 100 µM | 88.4 µM | > 100 µM | > 100 µM | 60.8 µM | 39.2 µM | > 100 µM |  |  |  |  |  |  |  |  |  | 
11 | C=CC1=C(C)C(Cc2[nH]c(/C=c3\[nH]/c(=C/C4=NC(=O)C(C)/C4=C\C)c(C)c3CCC(=O)O)c(CCC(=O)OC)c2C)NC1=O (centres undefined) | > 100 µM | 36.3 µM | > 100 µM | 44 µM | > 100 µM | 37.4 µM | > 100 µM | 46 µM |  | 39.4 µM | > 100 µM | 20.2 µM | 36.8 µM | 21.4 µM | 21.7 µM | 18.6 µM | 62.6 µM | 20 µM |  | 20.1 µM
12 | Cc1ccc2oc(=O)cc(C3c4ccc([nH]4)C(c4cc(=O)oc5ccc(C)cc45)c4ccc([nH]4)C(c4cc(=O)oc5ccc(C)cc45)c4ccc([nH]4)C(c4cc(=O)oc5ccc(C)cc45)c4ccc3[nH]4)c2c1 (centres undefined) | 0.248 µM | 0.353 µM | 2.99 µM | 0.0774 µM | 0.656 µM | 1.23 µM | 1.8 µM |  | 0.108 µM | 1.02 µM | 0.0275 µM | 0.165 µM | 0.0434 µM | 0.0254 µM | 0.0375 µM | 0.0365 µM | 0.0391 µM | 0.0417 µM | 0.0347 µM | 0.0983 µM
13 | COc1cccc2cc(N(C)c3nc(C)nc4ccsc34)ccc12 | < 0.015 µM |  | > 100 µM | 16.4 µM | 10.9 µM | 13.6 µM | 10.6 µM | 26.8 µM | 11.6 µM | 17.3 µM | < 0.01 µM | < 0.01 µM | < 0.01 µM | < 0.01 µM | < 0.01 µM | < 0.01 µM | < 0.01 µM | < 0.01 µM | < 0.01 µM | 0.123 µM
14 | NCCCn1c2c(c3ccc([N+](=O)[O-])cc3c1=O)C(=O)c1cc(Cl)ccc1-2 | 0.596 µM | 0.313 µM | 1.2 µM | 0.118 µM | 0.128 µM | 0.117 µM | 0.115 µM | 0.0325 µM | 0.225 µM | 0.275 µM | 0.0274 µM | < 0.01 µM | < 0.01 µM | < 0.01 µM | < 0.01 µM | < 0.01 µM | < 0.01 µM | < 0.01 µM | < 0.01 µM | 0.113 µM
15 | Cc1[nH]ccc2cc3nc4ccccc4c3cc12 | 2.15 µM | 7.15 µM | 18.9 µM | 3.91 µM | 3.52 µM |  | 5.83 µM | 3.53 µM | 3.55 µM | 16.5 µM | 0.421 µM | 2.35 µM | 3.62 µM | 1.74 µM | 1.39 µM |  | 2.18 µM | 1.13 µM | 1.16 µM | 5.17 µM
16 | CSc1ccc(C(=O)/C=C/c2ccc(F)cc2)cc1 | 95.5 µM | > 100 µM | > 100 µM | > 100 µM | > 100 µM | 83.4 µM | > 100 µM | 51.5 µM | > 100 µM | > 100 µM | 26.7 µM | > 100 µM | 96.4 µM | > 100 µM | 70.2 µM | 29.1 µM | 54.8 µM | 25.7 µM | 19.5 µM | > 100 µM

Source: PubChem BioAssay (NCI)
